Earlier results, collected in US20170202917A1, “PHARMACEUTICAL COMPOSITION FOR PREVENTING OR TREATING SKIN RASH” (DAEWOONG PHARMACEUTICAL CO., LTD., priority 2014, published 2017).

How the values were obtained:
skin rashes = conditions: prophylactic treatment

SMILES | improvement in skin rashes compared with placebo (skin rashes) [%] | overall incidence of erlotinib-related skin effects (ERSEs) (NSCLC and PC clinical trials) [%] | incidence of grade 3-4 ERSEs (NSCLC and PC clinical trials, of the patients) | time to development of rash after starting treatment (rash above the waist) [days]
CN(C)[C@@H]1C(O)=C(C(N)=O)C(=O)[C@@]2(O)C(O)=C3C(=O)c4c(O)cccc4[C@@](C)(O)[C@H]3C[C@@H]12 [tetracycline] | 30 | – | – | –
C#Cc1cccc(Nc2ncnc3cc(OCCOC)c(OCCOC)cc23)c1 [erlotinib] | – | 75 | about 10% | 7 to 10
